Results as given in patent US9597408B2, “Peptide-mediated non-covalent delivery of active agents across the blood-brain barrier” (Mayo Foundation for Medical Education and Research, priority 2009, dated 2017).
Where no end group is shown, it is not given here.

Tests used:
brain [1] = test: β-galactosidase delivery in brain, enzyme activity staining of brain slices; type: in vivo
Procedure: Required amount of the peptide and protein were mixed in a final volume of 300 μL PBS (phosphate buffered saline), and incubated at room temperature for 60 minutes. The mixture was vortexed for a few seconds, every fifteen minutes during the incubation period.
The mixture was injected intravenously as a bolus into the lumen of the femoral vein. This was accomplished using a heat pulled PE50 catheter. At the conclusion of the experiment, the mouse was euthanized with a lethal dose of sodium pentobarbital. Each mouse was perfused with 10 mL PBS. This perfusion was accomplished through the standard trans cardial method. The brain was removed from the skull and positioned to make an initial coronal slice at −2.0 mm bregma. Subsequently, 25 μm coronal sections were cut on a cryostat and placed on charged slides for staining of β-galactosidase activity.
Evaluation of β-galactosidase enzymatic activity was accomplished by an initial 15 minute fixation of the brain sections in 0.25% glutaraldehyde. The slides were washed with 3 changes of PBS for 5 minutes each and then rinsed in distilled water for 5 minutes. The brain sections were incubated in X-Gal (0.2%) working solution, pH 7.38, for 18 hours at 37° C. in covered containers. Following this incubation the sections were dehydrated and coverslips were applied.
To evaluate the potential of K16ApoE (SEQ ID NO: 22) for delivering a protein across the BBB, the enzyme β-galactosidase was injected in mice with or without prior mixing with K16ApoE (SEQ ID NO: 22) (at a protein to peptide molar ratio of 1:70). The experiment was repeated more than a dozen times. […] It is speculated that either X-gal or 5-bromo-4-chloroindole or both somehow leach out of this region faster than other regions of the brain resulting to a faint signal for β-galactosidase activity.

BBB [2] = tested on: BBB; design: species or system mice; conditions: mouse, in vivo
Procedure: Each mouse (represented by A through G) received an injection of K16ApoE (SEQ ID NO: 22), followed by injection of β-galactosidase at the indicated times. Brain slices were made 4 hours after β-galactosidase injection and were followed by staining for activity of the enzyme. A—β-galactosidase was injected 1 minute after K16ApoE (SEQ ID NO: 22) injection. B—β-galactosidase was injected 5 minutes after K16ApoE (SEQ ID NO: 22) injection. C—β-galactosidase was injected 10 minutes after K16ApoE (SEQ ID NO: 22) injection. D—β-galactosidase was injected 30 minutes after K16ApoE (SEQ ID NO: 22) injection. E—β-galactosidase was injected 1 hour after K16ApoE (SEQ ID NO: 22) injection. F—β-galactosidase was injected 2 hours after K16ApoE (SEQ ID NO: 22) injection. G—β-galactosidase was injected 4 hours after K16ApoE (SEQ ID NO: 22) injection. H—positive control (β-galactosidase mixed with K16ApoE (SEQ ID NO: 22) was injected, brain slices were made 4 hours after the injection and proceeded for staining for enzyme activity).
A transporter that efficiently carries a protein in the brain should not do so by impairing the integrity of the BBB. To evaluate if K16ApoE (SEQ ID NO: 22) impairs the integrity of the BBB, the peptide was first injected intravenously, then injected β-galactosidase at different time intervals. The control mice received the enzyme mixed with the peptide. […]

BBB [3] = tested on: BBB; design: species or system mice; conditions: mouse, in vivo; remark: listed apart in the source
Procedure: The delivery of radiolabeled IgG across the BBB in different brain regions in mice with and without the peptide K16ApoE (SEQ ID NO:22) was evaluated. In addition, the integrity of the BBB after delivery of IgG with K16ApoE (SEQ ID NO: 22) was examined. […] of ^125I-IgG were mixed with varying amounts of the peptide K16ApoE (SEQ ID NO: 22) (0-55 μmol), and the mixture injected intravenously into the mice. ^131I-IgG not complexed with the peptide was injected into the same animals at 59 minutes and allowed to circulate for 1 minute subsequent to the initial femoral vein injection of ^125I-IgG+K16ApoE (SEQ ID NO: 22). Uptake of ^125I-IgG and ^131I-IgG were measured in different areas of the brain after 60 minutes.
PS values reflect the amount of ^125I-IgG that has crossed the BBB, whereas Vp values indicate the amount of ^131I-IgG at the BBB but which has not crossed the BBB.

brain [4] = tested on: brain; design: species or system mice; conditions: mouse, in vivo
Procedure: FIG. 1 is a series of images illustrating the differences between delivery of Alexa-IgG complexed to K16ApoE (SEQ ID NO: 22) into brain and uncomplexed Alexa-IgG.
In this experiment, AlexaIgG488 was injected into mice with or without mixing with K16ApoE peptide (SEQ ID NO:22). Brain sections were made 1 hour after delivery.

mouse brain = test: microSPECT imaging of delivery of radioiodinated human IgG and IgM; type: in vivo
Procedure: Micro SPECT/CT experiments were conducted on a Gamma Medica X SPECT System (GE Healthcare). Human IgG (Sigma) and IgM (Sigma) were labeled to a high specific activity using the Chloramine-T method. […] Immediately subsequent to the intravenous bolus injection, the mice were imaged every hour for a total of 6 hours. At the completion of the 6 hour time point, each mouse was euthanized and the systemic blood supply was transcardially perfused with 10 mL phosphate buffered saline, and imaged after 30 minutes.
Since many potentially therapeutic proteins against brain-associated disorders are immunoglobulins, delivery of IgG and IgM through K16ApoE (SEQ ID NO: 22) in mouse brain was evaluated by micro-single photon emission computed tomography (microSPECT) imaging. For this, radioiodinated human IgG (Sigma, product # I 4506) and human IgM (Sigma, product # I 8260) were mixed with K16ApoE (SEQ ID NO: 22) and injected intravenously. Anesthetized animals were then subjected to imaging for 6 hours at 1 hour interval. Cardiac perfusion was then performed, after which final imaging was done at 30 minutes post-perfusion. Results from these experiments provide a number of indications (FIG. 4): First, it appears that peak delivery of both IgG and IgM into brain happens around 2 hours post-injection of the peptide-protein mix, after which uptake of the proteins in the brain remains relatively unchanged up to 6 hours (maximum time point tested). Second, cardiac perfusion appears to remove most of the radioactive protein in the vasculature, concomitantly increasing the difference between apparent brain-uptake of the protein with and without the carrier peptide (˜5-fold).

BBB [5] = test: Necessity of covalent linking of K16 and ApoE moieties: β-galactosidase staining of brain sections; type: in vivo, mice; conditions: β-galactosidase mixed with the peptide(s); FIG. 7
Procedure: Delivery of β-galactosidase in brain with K16 peptide (SEQ ID NO: 4) alone (A), with ApoE peptide only (B), with K16 peptide (SEQ ID NO: 4)+ApoE peptide (C), and with K16APoE peptide (SEQ ID NO: 22) (D).
The necessity of covalent linking of the K16 (SEQ ID NO: 4) and ApoE (SEQ ID NO: 13) peptide moieties was evaluated for non-covalent transport of a protein across the BBB. For this, β-galactosidase was mixed with either the ApoE peptide, the peptide K16 (SEQ ID NO: 4), ApoE plus K16 (SEQ ID NO: 4) or with K16ApoE (SEQ ID NO: 22), and injected in mice.

BBB [6] = tested on: BBB; design: species or system mice; conditions: mouse, in vivo; remark: listed apart in the source
Procedure: FIG. 8 illustrates the testing mutant ApoE peptides for their potential as non-covalent transporters of proteins across the BBB. A—no peptide, no β-gal; B—K16ApoE (SEQ ID NO: 22)+β-gal; C—K16L3N7 (SEQ ID NO: 126)+β-gal; D—K16L3L20 (SEQ ID NO: 127)+β-gal; E—K16N7L20 (SEQ ID NO: 128)+β-gal.
β-galactosidase was mixed with equal amounts of various peptide transporters and injected into mice. Slides were prepared using 25 μm sections of the mice brains one hour after injection followed by development of enzyme staining (FIG. 8).

KKKKKKKKKKKKKKKKLRVRLASHLRKLRKRLLRDA [K16ApoE, KKKKKKKKKKKKKKKKLRVRLASHLRKLRKRLLRDA]
areas of the brain reached by the delivered β-galactosidase (brain [1]; mouse, in vivo): virtually every area of the brain | β-galactosidase activity in brain (brain [1]; mouse, in vivo): intense β-galactosidase activity | effect of the peptide by itself on the BBB (BBB [2]): did not seem to affect the BBB | time until binding of injected peptide to proteins and cells in the circulation is virtually complete (BBB [2]; iv): ≤ 10 min | Vp values in all the brain regions examined (in words) (BBB [3]): virtually unchanged | damage of the BBB due to prior exposure to the peptide (BBB [3]): not damaged | contrast and enhancement of brain structures compared to uncomplexed AlexaIgG488 (brain [4]): significantly brighter contrast and enhancement of brain structures | share of the injected immunoglobulins transported into the brain (mouse brain; IgG and IgM, under the experimental condition): about 1% | difference between brain-uptake of the protein with and without the carrier peptide (mouse brain; IgG and IgM, after cardiac perfusion): ~5 fold | time of peak delivery of IgG and IgM into brain (mouse brain; post-injection of peptide-protein mix, 70-fold molar excess of peptide, FIG. 4): around 2 hours

KKKKKKKKKKKKKKKK [K16, KKKKKKKKKKKKKKKK]
β-galactosidase staining in brain sections (BBB [5]): β-galactosidase staining only in slides from mice receiving β-galactosidase mixed with K16ApoE

KKKKKKKKKKKKKKKKLRLRLANHLRKLRKRLLRDA [mutant A, KKKK KKKK KKKK KKKK LRLR LANH LRKL RKRL LRDA]
transport of β-galactosidase compared with wild-type ApoE blood-brain barrier agent (BBB [6]): worse than the wild-type

β-galactosidase: Bacterial β-galactosidase purchased from Calbiochem, enzyme injected alone [reference compound]
β-galactosidase activity in brain (brain [1]; protein to peptide molar ratio 1:70 or enzyme alone, slices 6 hours after injection, FIG. 3A): no activity

KKKKKKKKKKKKKKKKLRLRLASHLRKLRKRLLRDL [mutant B, KKKK KKKK KKKK KKKK LRLR LASH LRKL RKRL LRDL]
transport of β-galactosidase compared with wild-type ApoE blood-brain barrier agent (BBB [6]): at least as well as wild-type or better

KKKKKKKKKKKKKKKKLRVRLANHLRKLRKRLLRDL [mutant C, KKKK KKKK KKKK KKKK LRVR LANH LRKL RKRL LRDL]
transport of β-galactosidase compared with wild-type ApoE blood-brain barrier agent (BBB [6]): at least as well as wild-type or better
